# Measured values: US9592223B2, “Small molecule inhibitors of MALT1” (Cornell University, priority 2012, dated 2017)
# What was measured:
# [1] = Toxicity 2: 25 mg/kg daily IP for 14 days, blood count, serum chemistry, histology; type: in vivo, mice; conditions: for ALBUMIN / ALP / ALT / AST / BASOPHILS / BUN / CALCIUM / CHLORIDE / CHOLESTEROL / CK / CREATININE / DIRECT BILIRUBIN / EOSINOPHILS / GGT / GLOBULIN / GLUCOSE / HEMATOCRIT / HEMOGLOBIN / INDIRECT BILIRUBIN / LYMPHOCYTES / MONOCYTES / NEUTROPHILS / PHOSPHORUS / PLATELETS / RBC / SODIUM / TOTAL BILIRUBIN / TOTAL PROTEIN / WBC: 25 mg/kg IP daily 14 days
# Text: Brain, heart, lung, liver, kidney, bowel, spleen, thymus and bone marrow tissues were examined.
# [2] = test system: cleavage of A20, BCL10 and RELB; experiment: Cleavage of MALT1 substrates with MG-132 in HBL-1 and TMD8 cell lines, Western blot; type: cell-based, human; conditions: 2 μM for 30 minutes, then 5 μM MG-132 for one or two hour
# Protocol: As these proteins are directed to proteasomal degradation after cleavage (Coornaert et al., 2008; Hailfinger et al., 2011; Rebeaud et al., 2008), we used the proteasome inhibitor MG-132 to facilitate visualization of cleavage products (FIG. 4A).
# Equal amounts of total protein (20-75 μg) were separated on sodium dodecyl sulfate-polyacrylamide gel electrophoresis (SDS-PAGE), and electrotransferred onto nitrocellulose membranes. Membranes were incubated with primary antibodies (MALT1, BCL-10, CYLD from Santa Cruz Biotechnologies, Santa Cruz, Calif.; A20 from eBioscience, San Diego, Calif.; phospho-IκB-α, IκB-α, c-REL, RELB from Cell Signaling, Danvers, Mass. and α-Tubulin from Sigma), followed by secondary antibodies conjugated to horseradish peroxidase, which were detected by chemiluminescence (Pierce, Thermo Scientific, Rockford, Ill.).
# [3] = test system: ABC-DLBCL cell lines (HBL1 and TMD8); experiment: Caspase-3/7 cleavage assay for apoptosis; type: cell-based, human
# OCI-Ly1 cells = experiment: Trypan blue exclusion and Annexin V+ DAPI- apoptosis over 14 days, control line; type: cell-based, human; conditions: treated daily at the higher doses used for TMD8, 14 days
# Protocol: (§1) Cell proliferation was examined using the CFSE dilution assay by flow cytometry on viable cells at 48, 72 and 96 h. […] Trypan blue exclusion and apoptosis assessed by Annexin V^+ DAPI^− flow cytometry was measured every 48 hr for a period of 14 days.
# Apoptosis was assessed by AnnexinV-APC/DAPI (BD Pharmingen) staining followed by flow cytometry.
# OCI-Ly1 = experiment: CFSE dilution assay by flow cytometry, GCB-DLBCL line; type: cell-based, human; conditions: viable cells at 48, 72 and 96 h
# Protocol: as §1
# CFSE covalently labels long-lived intracellular molecules with carboxyfluorescein. Following each cell division, fluorescent molecules dilute in daughter cells, allowing comparative study of the kinetics of cell division. Cells were stained with DAPI (Sigma), followed by flow cytometry. DAPI^neg cells were gated for analysis.
# [4] = test system: ABC-DLBCL cell lines HBL-1 and TMD8 vs GCB-DLBCL cell line OCI-Ly1; experiment: Cell proliferation of selected hits and analogs, ATP-based metabolic luminescent assay; parameters: species or system human
# Text: MALT1 activity plays an important role in selectively maintaining proliferation of ABC-DLBCL cell lines (Ngo et al., 2006). Accordingly ABC and GCB-DLBCL cell lines present differential sensitivity to MALT1 cleavage inhibition by the peptide Z-VRPR-FMK (Ferch et al., 2009; Hailfinger et al., 2009; Rebeaud et al., 2008). To determine whether candidate small molecules display a similar profile two ABC-DLBCL cell lines, HBL-1 and TMD8, and one GCB-DLBCL cell line, OCI-Ly1, were exposed to increasing concentrations of the nineteen selected molecules. Cell proliferation was measured 48 hr after exposure to a single dose of compound using an ATP-based metabolic luminescent assay (summarized in FIG. 1C).
# A total of 704 analog compounds from available libraries with similarity score ≧70% (Tanimoto similarity functions) were screened by LZ-MALT1 fluorescence assay.
# Cell proliferation was determined by ATP quantification using a luminescent method (CellTiter-Glo, Promega, Madison, Wis.) and Trypan blue dye-exclusion (Sigma, St. Louis, Mo.). […]
# DLBCL cell lines were grown in exponential growth conditions during the 48 hr of treatment. Cell proliferation was determined by ATP quantification using a luminescent method (CellTiter-Glo, Promega, Madison, Wis.) and Trypan blue dye-exclusion (Sigma, St. Louis, Mo.). […]
# Caspase-8 = Caspase-8 (Homo sapiens, UniProt Q14790); experiment: Caspase selectivity; type: biochemical
# Caspase-8, sequence (Q14790 217-374 limits assumed): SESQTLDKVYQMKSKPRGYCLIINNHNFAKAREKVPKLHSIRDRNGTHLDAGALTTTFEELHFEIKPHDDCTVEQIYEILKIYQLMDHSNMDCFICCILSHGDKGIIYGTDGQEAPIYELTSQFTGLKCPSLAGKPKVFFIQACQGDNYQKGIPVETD
# Caspase-8, sequence (Q14790 385-479 limits assumed): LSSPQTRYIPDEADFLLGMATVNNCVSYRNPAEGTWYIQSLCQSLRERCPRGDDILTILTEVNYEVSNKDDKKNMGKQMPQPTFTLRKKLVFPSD
smiles,measurement,setting,value
COCCOc1nc(-c2ccc(Cl)c(Cl)c2)n(-c2ccc(NC(=O)CCl)cc2)n1 [MI-2],ALBUMIN,[1]; d14,3.12 g/dL
same,ALP,[1]; d14,83 U/L
same,ALT,[1]; d14,25 U/L
same,AST,[1]; d14,70 U/L
same,BASOPHILS,[1]; d14,0.01 K/μL
same,BUN,[1]; d14,23.4 mg/dL
same,CALCIUM,[1]; d14,10.88 mg/dL
same,CHLORIDE,[1]; d14,108.4 mEq/L
same,CHOLESTEROL,[1]; d14,85.4 mg/dL
same,CK,[1]; d14,202.8 U/L
same,CREATININE,[1]; d14,0.22 mg/dL
same,DIRECT BILIRUBIN,[1]; d14,0.10 mg/dL
same,EOSINOPHILS,[1]; d14,0.03 K/μL
same,GGT,[1]; d14,0 U/L
same,GLOBULIN,[1]; d14,2.20 g/dL
same,GLUCOSE,[1]; d14,313.8 mg/dL
same,HEMATOCRIT,[1]; d14,40.86%
same,HEMOGLOBIN,[1]; d14,12.94 g/dL
same,INDIRECT BILIRUBIN,[1]; d14,0.08 mg/dL
same,LYMPHOCYTES,[1]; d14,6.29 K/μL
same,MONOCYTES,[1]; d14,0.32 K/μL
same,NEUTROPHILS,[1]; d14,1.18 K/μL
same,PHOSPHORUS,[1]; d14,9.46 mg/dL
same,PLATELETS,[1]; d14,981 K/μL
same,RBC,[1]; d14,8.60 M/μL
same,SODIUM,[1]; d14,152.8 mEq/L
same,TOTAL BILIRUBIN,[1]; d14,0.180 mg/dL
same,TOTAL PROTEIN,[1]; d14,5.32 g/dL
same,WBC,[1]; d14,7.83 K/μL
same,ALBUMIN,[1]; d24 (10-day washout),3.15 g/dL
same,ALP,[1]; d24 (10-day washout),100 U/L
same,ALT,[1]; d24 (10-day washout),23 U/L
same,AST,[1]; d24 (10-day washout),49.5 U/L
same,BASOPHILS,[1]; d24 (10-day washout),0.04 K/μL
same,BUN,[1]; d24 (10-day washout),27.0 mg/dL
same,CALCIUM,[1]; d24 (10-day washout),10.80 mg/dL
same,CHLORIDE,[1]; d24 (10-day washout),106.7 mEq/L
same,CHOLESTEROL,[1]; d24 (10-day washout),91.75 mg/dL
same,CK,[1]; d24 (10-day washout),119.5 U/L
same,CREATININE,[1]; d24 (10-day washout),0.20 mg/dL
same,DIRECT BILIRUBIN,[1]; d24 (10-day washout),0.10 mg/dL
same,EOSINOPHILS,[1]; d24 (10-day washout),0.11 K/μL
same,GGT,[1]; d24 (10-day washout),0 U/L
same,GLOBULIN,[1]; d24 (10-day washout),2.15 g/dL
same,GLUCOSE,[1]; d24 (10-day washout),288.5 mg/dL
same,HEMATOCRIT,[1]; d24 (10-day washout),45.02%
same,HEMOGLOBIN,[1]; d24 (10-day washout),13.55 g/dL
same,INDIRECT BILIRUBIN,[1]; d24 (10-day washout),0.07 mg/dL
same,LYMPHOCYTES,[1]; d24 (10-day washout),6.76 K/μL
same,MONOCYTES,[1]; d24 (10-day washout),0.27 K/μL
same,NEUTROPHILS,[1]; d24 (10-day washout),1.85 K/μL
same,PHOSPHORUS,[1]; d24 (10-day washout),9.65 mg/dL
same,PLATELETS,[1]; d24 (10-day washout),1275 K/μL
same,RBC,[1]; d24 (10-day washout),9.38 M/μL
same,SODIUM,[1]; d24 (10-day washout),153 mEq/L
same,TOTAL BILIRUBIN,[1]; d24 (10-day washout),0.175 mg/dL
same,TOTAL PROTEIN,[1]; d24 (10-day washout),5.30 g/dL
same,WBC,[1]; d24 (10-day washout),9.03 K/μL
same,bone marrow histology,[1]; daily IP 25 mg/kg over 14 days,normocellular with trilineage maturing hematopoiesis
same,"complete peripheral blood counts, biochemistry and liver function tests",[1]; daily IP 25 mg/kg over 14 days,normal
same,"toxic effects, weight loss, tissue damage","[1]; daily IP 25 mg/kg over 14 days, cumulative 350 mg/kg",No toxic effects or other indicators of sickness
same,"cleaved forms of A20, BCL10 and RELB",[2],diminished the abundance of cleaved forms and/or increased the abundance of full-length proteins
same,apoptosis (Caspase-3/7 cleavage),[3],dose dependent apoptosis within 48 hr
same,viability and apoptosis,OCI-Ly1 cells,no effect
same,cell proliferation (CFSE dilution),OCI-Ly1,did not affect
same,GI25 concentrations,[4]; 48 hr,high nanomolar range
same,"suppression of cell proliferation, ABC-DLBCL vs GCB-DLBCL cell lines","[4]; 48 hr after a single dose, increasing concentrations",significant selective dose-dependent suppression of ABC-DLBCL cells
same,activity against Caspase-8,Caspase-8,little activity
